This data set in a line: gradient 5% acetonitrile 3 min, to 50% in 2 min, to 85% in 15 min, held 3 min, 100 µL/min. The note with it: column: Zorbax Extend-C18 2.1 x 50 mm; eluents: water / acetonitrile, 0.1% formic acid. A digest of the protocol:
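Retention times of pure standards were taken from adduct peaks that were selected by computer and manually inspected. Over 3 months, mixtures of ~100 molecules were run by HPLC–quadrupole time-of-flight mass spectrometry in positive and negative ionization mode. The Zorbax Extend-C18 column (2.1 × 50 mm, 1.8 μm) ran at 100 μL/min in water and acetonitrile, each containing 0.1% formic acid, with 40 μL dead volume and 900 μL dwell volume.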
In turn, `CC(C)CCNC(=O)C1CCCN(c2nnc3ccc(C(F)(F)F)cn23)C1` (configuration not stated) returned an RP-LC retention time of 829 s.
Next, `CCCNc1cc(N2CCC(CCC(=O)NCc3cccnc3)CC2)ncn1`: 556 s.
In the case of `c1ccc(-c2csc(Nc3cccnc3)n2)cc1`, the RP-LC retention time worked out at 674 s.
The same measure for `COCCN(Cc1ccc(F)cc1)Cc1cc(=O)c2cc(Cl)ccc2[nH]1`: 880 s; for `O=C(CSc1ccc(N2CCOCC2)nn1)Nc1ccc(Cl)cc1`: 725 s.
Next, `COc1cccc(CNC(=O)N2c3ccccc3CC2c2nc(C3CC3)no2)c1` (configuration not stated): 775 s; `CCc1nc2cc(-c3noc(Cc4c[nH]c5ccccc45)n3)ccc2o1`: 1020 s; `CC(=O)N1c2ccc(S(=O)(=O)N3CCCCC3)cc2CC1C(=O)NCCc1ccc(C)cc1` (configuration not stated): 941 s.
The same measure for `O=C(NCCn1nc(-c2cccs2)ccc1=O)c1ccc2ncsc2c1`: 629 s; for `Cc1nc(C)c(C(=O)N2CCC(Oc3ccc(-c4noc(-c5ccccc5)n4)cc3)C2)s1` (configuration not stated): 1080 s; for `CCn1nc(C)c(CCNC(=O)Nc2ccccc2C(F)(F)F)c1C`: 672 s.
The molecule `CCOc1ccc(NC(=O)CSc2nc(N3CCCCC3)nc3ccccc23)cc1` returned an RP-LC retention time of 745 s.
On to `COc1ccccc1CNC1=NCCNC12CCN(S(=O)(=O)c1ccc(C)cc1)CC2`, for which the RP-LC retention time is 743 s.
Next, `COc1ccc(-c2ccnc3nc(-c4cccs4)nn23)cc1`: 892 s; `COc1ccc2c(CCNC(=O)C(C)C)c[nH]c2c1`: 706 s; `CCN(CC)S(=O)(=O)c1ccc(F)c(-c2nnc(-c3ccccc3Br)o2)c1`: 1090 s.
As to `Cc1ccc(CN2CCN(CC(=O)Nc3cc(C)cc(C)c3)C(=O)C2=O)cc1`, the RP-LC retention time came to 838 s.
Next, `COc1ccccc1CNC(=O)C1CCN(S(C)(=O)=O)c2ccccc2O1` (configuration not stated): 807 s.
Molecule `Cc1sc2ccn(C)c(=O)c2c1C(=O)NC1CCCCC1` returned an RP-LC retention time of 716 s.
In turn, `CC1CCN(S(=O)(=O)c2ccc(-c3nnc(C(=O)NCC4CCCO4)o3)cc2)CC1` (configuration not stated) gave an RP-LC retention time of 865 s.
Take `Cc1nc(CCNC(=O)C2CCN(S(=O)(=O)c3cccc(C(F)(F)F)c3)CC2)cs1`: the RP-LC retention time stood at 776 s.
Turning to `Cc1ccc(CNC(=O)C2=CCN(Cc3ccccc3)CC2)o1`, the RP-LC retention time worked out at 601 s.
The same measure for `O=C1CC(C(F)(F)F)c2c(c(C(=O)O)cn2-c2cccc(Cl)c2)N1` (configuration not stated): 786 s.
The molecule `CCOC(=O)c1c(S(=O)(=O)N2CCC(C(=O)Nc3ccc(F)cc3C)CC2)c(C)n(CC)c1C` came in with an RP-LC retention time of 885 s.
Next, `CCC(=O)N1CCc2c(-c3ccc(OC)cc3)cccc2[C@H]1C`: 1030 s.
In turn, `CCOC(=O)c1c(S(=O)(=O)N2CCC(C(=O)NCc3ccccc3OC)CC2)c(C)n(C)c1C` displayed an RP-LC retention time of 800 s.
Next, `O=C(Nc1cc(-c2ccsc2)no1)c1ccc(Br)o1`: 927 s; `O=C(c1ccc(-c2ccsc2)nc1)N1CCCCC1`: 792 s.
The same measure for `COc1ccc(-c2cn3cccnc3n2)cc1NC(=O)c1cccc(Br)c1`: 748 s; for `CCOc1ccc(NS(=O)(=O)c2cc(C(=O)N3CCN(c4cccc(C)c4)C(C)C3)n[nH]2)cc1` (configuration not stated): 899 s; for `CCN1C(=O)c2cccnc2Sc2cc(NC(=O)Cc3ccc(F)cc3)ccc21`: 816 s.
`CCOc1ccc(NC(=O)N(C)CC2CCOCC2)cc1` came in with an RP-LC retention time of 719 s.
`N#Cc1cnc2ccccc2c1N1CCC(C(=O)N2CCSCC2)CC1` came in with an RP-LC retention time of 658 s.
Next, `CC(C)N1C(=O)C(C)(C(=O)Nc2ccc(F)cc2)Oc2cccnc21` (configuration not stated): 986 s; `Cc1cc(C)cc(N2CC(c3nc(-c4ccccc4F)no3)CC2=O)c1` (configuration not stated): 1010 s.
Molecule `O=C(CCCN1CCN(Cc2ccc(F)cc2)C(=O)C1=O)NCCc1ccc(Cl)cc1` yielded an RP-LC retention time of 733 s.
In turn, `CC1=C(c2ccc(F)cc2)S(=O)(=O)N=C1N1CCCN(C(=O)c2ccoc2)CC1` had an RP-LC retention time of 752 s.
Regarding `CC(C)CNC(=O)c1ccc2c(ccn2C)c1`, the RP-LC retention time stood at 784 s.
The same measure for `COc1ccc2[nH]c(C(=O)NC3CC3)cc2c1`: 703 s.
In turn, `O=C(Oc1ccccc1)N1CCC(CNS(=O)(=O)/C=C/c2ccccc2)CC1` gave an RP-LC retention time of 912 s.
Next, `O=C(Nc1cccc(F)c1)c1n[nH]nc1Nc1cccc(F)c1`: 1050 s; `COc1ccc(C(=O)NCC(=O)Nc2nc3ccccc3[nH]2)c(C)c1`: 630 s.
Next, `CCC(=O)N1CCc2ccccc2C1C(=O)NCc1cccc(Br)c1` (configuration not stated): 828 s; `Cc1ccc(NC(=O)Nc2nccn(-c3ccc(F)c(F)c3)c2=O)cc1F`: 1020 s; `COc1cccc(C(=O)NCCCS(=O)(=O)N2CCN(c3ccccc3)CC2)c1OC`: 810 s.
Molecule `Cc1ccc(C(=O)N2CC[C@H](CO)[C@H](N(C)C)C2)s1` displayed an RP-LC retention time of 577 s.
For `Cc1ccc(Nc2nc(-c3ccc(Br)cc3)cs2)nc1`, the RP-LC retention time is 1080 s.
The same measure for `CC(=O)Nc1ccc(SCCCC(=O)Nc2ncc([N+](=O)[O-])s2)nn1`: 670 s.
As to `CCOc1ccc(CC(=O)Nc2nc(-c3cccs3)cs2)cc1`, the RP-LC retention time came to 963 s.
The same measure for `CCn1c(=O)c(C)nc2cc(-c3noc(-c4sccc4C)n3)ccc21`: 1080 s; for `COc1ccc2c(c1)C1(CCN(S(=O)(=O)c3cccc(C)c3)C1)C(=O)N2C` (configuration not stated): 941 s.
The same measure for `O=c1[nH]c2ccc(NCc3ccc(-c4ccccc4F)o3)cc2[nH]1`: 687 s; for `COc1ccc(-c2nnc(COc3cccc(NC(=O)c4ccc(C)s4)c3)o2)cc1`: 988 s; for `CCn1nccc1-c1cccc(-c2noc(-c3cccs3)n2)c1`: 1130 s.
Next, `Cc1cc(OC(C)C(=O)N(Cc2ccco2)C2CCS(=O)(=O)C2)cc(C)c1Cl` (configuration not stated): 1010 s.
`COC(=O)C1CCN(S(=O)(=O)c2ccc(Cl)c(-c3nnc(-c4ccccc4)o3)c2)CC1` gave an RP-LC retention time of 1040 s.
The same measure for `CCC(C)C(NC(=O)c1ccc(F)c(F)c1)C(=O)Nc1nc2ccccc2[nH]1` (configuration not stated): 774 s.
The same measure for `CCC1CCCCN1C(=O)CN1CCn2c1nc(C)c(C)c2=O` (configuration not stated): 618 s.
The same measure for `O=C(NCc1ccc(F)cc1)Nc1cccn2ncnc12`: 718 s; for `Cc1ccc(C)c(N2CCN(C(=O)c3cn4cc(C)ccc4n3)CC2)c1`: 797 s.
Take `Cc1nn(C(C)C(=O)Nc2ccc(Cl)cn2)c(=O)c2c(-n3cccc3)n(-c3ccccc3)nc12` (configuration not stated): the RP-LC retention time was 1120 s.
For `CCCCOc1cccc(C(=O)N(Cc2ccc(C)o2)C2CCS(=O)(=O)C2)c1` (configuration not stated), the RP-LC retention time turned out to be 1030 s.
For `Cc1ccc(NC(=O)NCCn2c(-c3ccncc3)nc3cccnc32)cc1Cl`, the RP-LC retention time was found to be 666 s.
The same measure for `O=C(O)C1CCN(c2nc3ccc(-c4ccccc4)nc3s2)CC1`: 868 s; for `CCOC(=O)c1ccc(NC(=O)N2CCN(CC)c3ncccc32)cc1`: 640 s.
The molecule `O=C(NCCN1CCOCC1)c1nc2ccccn2c1-c1ccc(F)cc1` gave an RP-LC retention time of 616 s.
Next, `COc1ccc(-c2noc(C3(NC(=O)c4cccc(Cl)c4)CCCCC3)n2)cc1`: 1250 s; `c1ccc2c(c1)Nc1ccncc1S2`: 634 s.
In the case of `COc1ccc(NC(=O)Cn2c(N3CCOCC3)nc(C)cc2=O)cc1`, the RP-LC retention time was 609 s.
Next, `Cn1ccc2c(cc(C(=O)NCc3cccc(Cl)c3)n2C)c1=O`: 724 s; `CCCn1c(=O)sc2cc(S(=O)(=O)N3CCN(C(=O)c4ccnn4C)CC3)ccc21`: 792 s.
The same measure for `O=C(NCc1ccccc1F)c1ccc2c(c1)CN(Cc1cccs1)CCO2`: 759 s; for `COc1ccc(Cl)cc1C(=O)NCCc1c[nH]c2ccc(C)cc12`: 657 s; for `CC(C)CCNC(=O)CCC(=O)N1CC2CCCN2c2ccccc21` (configuration not stated): 902 s.
Next, `COCCN1CC2CN(C(=O)Nc3ccc4c(c3)OCCO4)CC(C1)O2`: 580 s.
In the case of `CC1CCCN(S(=O)(=O)c2ccc(-n3cnc(C(=O)NCC4CC4)c3)nc2)C1` (configuration not stated), the RP-LC retention time was found to be 902 s.
In turn, `CC(Oc1ccc(=O)n(-c2ccc(F)cc2)n1)C(=O)Nc1cccc(Cl)c1` (configuration not stated) came in with an RP-LC retention time of 802 s.
Consider `Cn1c(=O)c(N2CCCC(C(=O)N3CCCCCC3)C2)nc2cccnc21` (configuration not stated), for which the RP-LC retention time worked out at 918 s.
The same measure for `Cc1ccc(CNC(=O)CN2CCN(Cc3ccc(F)cc3)C2=O)cc1C`: 835 s.
Next, `CCOC(=O)C1CCCN(c2ccc(-n3nc(C)cc3C)nn2)C1` (configuration not stated): 680 s.
Turning to `CCOc1ccccc1NC(=O)CN1c2ccc(F)cc2-c2ccccc2S1(=O)=O`, the RP-LC retention time was 1090 s.
`CCOC(=O)CCNC(=O)N1c2ccccc2CC1c1nc(C(C)C)no1` (configuration not stated) had an RP-LC retention time of 609 s.
